Test system: Mgat3 transcription
Assay: qPCR of Mgat3 transcription in PBMC's from AD patients cultured with Aβ and test agent
Type: cell-based, human
Set-up: key to Relative Activity: relative ratio of Mgat3 transcription in AD/Mgat3 transcription in control cells: Dash (−) indicates minimal effect; (+) indicates a ratio of 1.0-1.5; (++) indicates a ratio of 1.5-2.0; (+++ to ++++) indicates a ratio of 2.0 and above; (+++ to ++++) indicates a ratio of 2.0 and above
Conditions: Homo sapiens; curcumins 0.1 uM, PBMC's from AD patients cultured overnight with Aβ, 2 hours incubation, qPCR; read-out: Relative Activity: relative ratio of Mgat3 transcription in AD/Mgat3 transcription in control cells
Method: RNA Isolation and qPCR. RNA was isolated as above from PBMC's (10 million) of each subject, which were cultured overnight with or without Aβ (2 μg/ml); and cDNA was synthesized using the iSCRIPT cDNA Synthesis Kit. The expression levels of the genes of interest were tested by qPCR on a real-time PCR detector and normalized to the levels of the housekeeping gene 36B4 with the following primers: […]
SYBR Green reactions were carried out with the IQ SYBR Green mix. Reactions were run on a Continuous Fluorescence detector and analyzed. The relative quantities of the gene tested per sample were calculated against 36B4 using the ΔΔC(T) formula as previously described. The results are expressed as log [MGAT (or TLR) RNA (with Aβ)/MGAT (or TLR) RNA (without Aβ)] for each specimen. For evaluation of curcumins or curcumin analogs the above assay was used. Curcumins (0.1 uM) were added to PBMC's from AD patients cultured overnight with ±Aβ as above. After 2 hours of incubation with the curcumin or analog, RNA was isolated and cDNA was synthesized as above. The expression levels of Mgat3 or TLR transcription was quantified and normalized to the levels of housekeeping genes and compared to cells treated with curcumin or analogs with or without Aβ vs. untreated cells. The amount of Mgat3 (or TLR) RNA with Aβ and test agent/Mgat3 (or TLR) RNA withal alone)] for each cell preparation in the presence of test agent was determined. The ratio was used to determine the potency of the agent tested. Potent compounds had elevated ratios (>1.5) and were used to rank the relative activity of each test agent (Table 2).
Curcumins. […] Crude natural product derived materials (i.e., curcuminoids) enhance phagocytosis of Aβ by macrophages from AD patients in approximately 50% of the cases examined. […] The material was purified to near homogeneity and identified by LCMS as bisdesmethoxycurcumin on the basis of its molecular ion and fragmentation pattern. To verify the biological activity of this minor constituent, bisdesmethoxycurcumin was chemically synthesized and tested in the phagocytosis and transcription assays described above (see Example 4). Compared with curcumin, both the bisdesmethoxycurcumin material isolated by chromatography and the chemically synthesized bisdesmethoxycurcumin material optimally stimulated phagocytosis at 0.1 μM. To determine whether functional improvement would be accompanied by biochemical changes, we tested transcriptional up-regulation of MGA T3 and TLR's in PBMC's from AD patients and controls in the presence of Aβ with bisdesmethoxycurcumin (0.1 μM) in comparison to Aβ alone. […] Thus, curcumins (0.1 uM) were added to PBMC's from AD patients cultured overnight with Aβ as above. After 2 hours of incubation, RNA was isolated and cDNA was synthesized. The expression levels of Mgat3 or TLR transcription was quantified and normalized to the levels of housekeeping genes and compared to cells treated with curcumin or analogs without Aβ. The amount of Mgat3 (or TLR) RNA with test agent and Aβ)/Mgat3 (or TLR) RNA (with Aβ alone)] for each cell preparation in the presence of test agent was determined. The ratio was used to determine the potency of the agent tested. Potent compounds had elevated ratios (>1.5) and were used to rank the relative activity (Table 2).
Mgat3 and TLR transcription in cells from AD and control patients. We tested by qPCR Mgat3 and/0or TLR transcription in cells from AD patients and compared the results to those obtained from age-matched controls (Table 2). As discussed above, activation or up-regulation of macrophage Mgat3 or TLR's results in many functional outcomes, including the enhancement of […] and removal of Aβ, increased apoptosis, secretion of inflammatory cytokines, and other anti-AD antimicrobial activities. […] Thus, the ratio of Mgat3 or TLR transcription upon Aβ stimulation of AD versus control PBMCs provides an indicator and sensitive method to test the in vitro efficacy of drug candidates. […]

Compound	fold induction at 0.1 µM
COc1cc(O)ccc1C=CC(=O)C=C(O)C=Cc1ccc(O)cc1OC [Compound 5i, 5-Hydroxy-1,7-bis-(4-hydroxy-2-methoxy-phenyl)-hepta-1,4,6-trien-3-one]	1.5 to 2
COc1ccccc1C=CC(=O)C=C(O)C=Cc1ccccc1OC [Compound 5l, 5-Hydroxy-1,7-bis-(2-methoxy-phenyl)-hepta-1,4,6-trien-3-one]	≥ 2
CC(C)(C)c1ccc(/C=C/C(=O)/C=C(O)/C=C/c2ccc(C(C)(C)C)cc2)cc1 [Compound 10, (1E,4Z,6E)-1,7-bis(4-tert-butylphenyl)-5-hydroxyhepta-1,4,6-trien-3-one]	1 to 1.5
O=C(C=Cc1cccc(O)c1)C=C(O)C=Cc1cccc(O)c1 [Compound 5e, 5-Hydroxy-1,7-bis-(3-hydroxy-phenyl)-hepta-1,4,6-trien-3-one]	1 to 1.5
O=C(/C=C(O)/C=C/c1ccccc1)/C=C/c1ccccc1 [Compound 6, (1E,4Z,6E)-5-hydroxy-1,7-diphenylhepta-1,4,6-trien-3-one]	1 to 1.5
CN(C)c1ccc(C=CC(=O)C=C(O)C=Cc2ccc(N(C)C)cc2)cc1 [Compound 5f, 1,7-Bis-(4-dimethylamino-phenyl)-5-hydroxy-hepta-1,4,6-trien-3-one]	≥ 2
COc1cc(C=CC(=O)C=C(O)C=Cc2ccc(O)c(OC)c2)ccc1O [Compound 5h, 5-Hydroxy-1,7-bis-(4-hydroxy-3-methoxy-phenyl)-hepta-1,4,6-trien-3-one]	1 to 1.5

Same assay, conditions: curcumins 0.1 uM, PBMC's from AD patients cultured overnight with Aβ, 2 hours incubation, qPCR

Compound	Relative Activity: relative ratio of Mgat3 transcription in AD/Mgat3 transcription in control cells
O=C(/C=C(O)/C=C/c1cccc(F)c1)/C=C/c1cccc(F)c1 [Compound 8]	+ ((+) indicates a ratio of 1.0-1.5)
Cc1ccc(/C=C/C(=O)/C=C(O)/C=C/c2ccc(C)cc2)cc1 [Compound 7]	++ ((++) indicates a ratio of 1.5-2.0)
CC(=O)Oc1ccc(C=CC(=O)C=C(O)C=Cc2ccc(OC(C)=O)cc2)cc1 [Compound 5c, Aceticacid 4-[7-(4-acetoxy-phenyl)-5-hydroxy-3-oxo-hepta-1,4,6-trienyl]-phenyl ester]	−
COc1ccc(C=CC(=O)C=C(O)C=Cc2ccc(OC)cc2)cc1 [Compound 5b, 5-Hydroxy-1,7-bis-(4-methoxy-phenyl)-hepta-1,4,6-trien-3-one]	−
CC(C)(C)C(=O)Oc1ccc(C=CC(=O)CC(=O)C=Cc2ccc(OC(=O)C(C)(C)C)cc2)cc1 [Compound 5d, 2,2-Dimethyl-propionic acid 4-{7-[4-(2,2-dimethyl-propionyloxy)-phenyl]-3,5-dioxo-hepta-1,6-dienyl}-phenyl ester]	−
O=C(C=Cc1ccc(O)c(Cl)c1)C=C(O)C=Cc1ccc(O)c(Cl)c1 [Compound 5k, 1,7-Bis-(3-chloro-4-hydroxy-phenyl)-5-Hydroxy-hepta-1,4,6-trien-3-one]	−
COc1ccc(C=CC(=O)C=C(O)C=Cc2ccc(OC)cc2O)c(O)c1 [Compound 5j, 5-Hydroxy-1,7-bis-(2-hydroxy-4-methoxy-phenyl)-hepta-1,4,6-trien-3-one]	−
CSc1ccc(/C=C/C(=O)/C=C(O)/C=C/c2ccc(SC)cc2)cc1 [Compound 9]	++++ ((+++ to ++++) indicates a ratio of 2.0 and above)

From patent US20090263492A1, “Diagnostic Methods and Genetic Markers for Alzheimer Disease” (priority 2006, published 2009)
